In brackets after ≈: the same amount, converted by molar mass.
Experiments:
[1] = Aqueous solubility of the compound in buffer; type: physicochemical
[2] = Aqueous solubility of the compound; type: physicochemical; settings: buffer
[3] = Permeability in rat jejunum; type: ADME, tissue-based; settings: read-out: permeability
[4] = Permeability in MDCK-II cells; type: ADME, cell-based, Canis lupus familiaris; settings: dog, read-out: permeability
[5] = Aqueous solubility of the compound in FaSSIF at pH 6.5 measured by dissolution tester; type: physicochemical
[6] = Permeability in human Caco-2 cells; type: ADME, cell-based; settings: read-out: permeability
[7] = Aqueous solubility of the compound at pH 1.8; type: physicochemical; settings: buffer
[8] = Aqueous solubility of the compound at pH 5; type: physicochemical; settings: buffer
[9] = Aqueous solubility of the compound in FaSSIF; type: physicochemical
[10] = Permeability in pig LLC-PK1 cells; type: ADME, cell-based, Sus scrofa; settings: read-out: permeability
physchem = settings: phosphate buffer, pH 6.8
Description: Aqueous solubility of the compound in phosphate buffer at pH 6.8 measured after 72 hrs by UV-Vis spectrophotometer

CC(C)(C)c1cc(C(C)(C)C)c(NC(=O)c2c[nH]c3ccccc3c2=O)cc1O [IVACAFTOR]
solubility [1]: < 0.05 µg/mL

C=CC[C@@H]1/C=C(\C)C[C@H](C)C[C@H](OC)[C@H]2O[C@@](O)(C(=O)C(=O)N3CCCC[C@H]3C(=O)O[C@H](/C(C)=C/[C@@H]3CC[C@@H](O)[C@H](OC)C3)[C@H](C)[C@@H](O)CC1=O)[C@H](C)C[C@@H]2OC [TACROLIMUS ANHYDROUS]
solubility [2]: 1.3 µg/mL (≈ 1.62 µM)
Papp [3]: 18 ×10⁻⁶ cm/s

COC(=O)N[C@H](C(=O)N1CCC[C@H]1c1nc2cc([C@H]3CC[C@H](c4cc5nc([C@@H]6CCCN6C(=O)[C@@H](NC(=O)OC)[C@@H](C)OC)[nH]c5cc4F)N3c3cc(F)c(N4CCC(c5ccc(F)cc5)CC4)c(F)c3)c(F)cc2[nH]1)[C@@H](C)OC [PIBRENTASVIR]
Papp [4]: < 1 ×10⁻⁶ cm/s

CCCS(=O)(=O)Nc1ccc(F)c(C(=O)c2c[nH]c3ncc(-c4ccc(Cl)cc4)cc23)c1F [VEMURAFENIB]
solubility [5]: 2 µg/mL (≈ 4.08 µM)
Papp [6]: 2.9 ×10⁻⁶ cm/s

COC(=O)N[C@H](C(=O)N1CCC[C@H]1c1nc(-c2ccc3c(c2)O[C@@H](c2ccccc2)n2c-3cc3cc(-c4c[nH]c([C@@H]5CCCN5C(=O)[C@@H](NC(=O)OC)C(C)C)n4)ccc32)c[nH]1)C(C)C [ELBASVIR]
solubility [7]: > 5 µg/mL
solubility [8]: 50 µg/mL (≈ 56.7 µM)
Papp [4]: 0.8 ×10⁻⁶ cm/s

C=C[C@@H]1C[C@]1(NC(=O)[C@@H]1C[C@@H]2CN1C(=O)[C@H](C(C)(C)C)NC(=O)O[C@@H]1C[C@H]1CCCCCc1nc3ccc(OC)cc3nc1O2)C(=O)NS(=O)(=O)C1CC1 [GRAZOPREVIR ANHYDROUS]
solubility [9]: < 7 µg/mL
Papp [10]: 19 ×10⁻⁶ cm/s

Cc1ccc(-n2nccn2)c(C(=O)N2CCN(c3nc4cc(Cl)ccc4o3)CC[C@H]2C)c1 [SUVOREXANT]
solubility [9]: 9 µg/mL (≈ 20 µM)
Papp [10]: 22.8 ×10⁻⁶ cm/s

CC(C)c1nc(CN(C)C(=O)N[C@H](C(=O)N[C@@H](Cc2ccccc2)C[C@H](O)[C@H](Cc2ccccc2)NC(=O)OCc2cncs2)C(C)C)cs1 [RITONAVIR]
Papp [6]: 20 ×10⁻⁶ cm/s

CCC[C@H](NC(=O)[C@@H]1[C@H]2CCC[C@H]2CN1C(=O)[C@@H](NC(=O)[C@@H](NC(=O)c1cnccn1)C1CCCCC1)C(C)(C)C)C(=O)C(=O)NC1CC1
Papp [6]: > 4.4 ×10⁻⁶ cm/s
solubility at 72 h (physchem): 4.7 µg/mL (≈ 6.91 µM)

Cc1cc(C#N)cc(C)c1Oc1nc(Nc2ccc(C#N)cc2)nc(N)c1Br [ETRAVIRINE]
solubility [2]: < 1 µg/mL

Source: ChEMBL document CHEMBL5143567, “Dose Number as a Tool to Guide Lead Optimization for Orally Bioavailable Compounds in Drug Discovery” (J Med Chem, 2022)
